Values of other authors as cited in article PMC6862717 (ACS chemical neuroscience, 2018).

Tests used:
[1] = system: transgenic animal model of AD
[2] = system: nematodes
[3] = system: wild-type mice
[4] = system: animal model of neuropathic pain

Row | Molecule | efficacy in a transgenic animal model of AD [1] | neuroprotective properties in nematodes [2] | cognitive performance in wild-type mice [3] | mechanical hypersensitivity [4]
1 | CN1CCN(c2ccc3c(c2)[C@H]2C[C@@H]3CCN2C(=O)OCc2ccccc2)CC1 (racemic) [SAS-0132] | efficacious | shows neuroprotective properties | improves cognitive performance | –
2 | UKH-1114 | – | – | – | relieves mechanical hypersensitivity
